In patent US12605401B2, “Polymers, compositions and methods for treating hyperuricemia” (WATERSTONE PHARMACEUTICALS (WUHAN) CO., LTD., priority 2021, dated 2026):

Test system: chronic hyperuricemia model rats
Assay: Chronic hyperuricemia model, adenine + ethambutol, 21 days; serum UA, CREA, UREA
Format: in vivo
Experimental: 48 rats were randomly divided into 6 groups with 8 rats in each group. The groups were as follows: Blank Group (Vehicle, ig), Model Group (Vehicle, ig), Positive control group (Allopurinol, 10 mg/kg, ig), Compound 1 group (Sevelamer carbonate, 250 mg/kg, ig), Compound 2 low-dose group (TAA polymer, 50 mg/kg, ig), Compound 2 high-dose group (TAA polymer, 250 mg/kg, ig). Except for blank group, rats in other groups were modeled according to the chronic modeling method. The modeling method was as follows: rats were given Adenine (100 mg/kg)+Ethambutol (250 mg/kg) by gavage, once a day, for 21 days. Animals in blank group and model group were given equal volume of normal saline by gavage. Animals in positive control group were given positive 10 mg/kg Alloalcohol, once in the first week, once in the second week, once a day for 3 days before sampling in the third week. Animals in other groups were given intragastric administration once a day for 14 consecutive days from the 8th day of modeling. Blood samples were taken at Day 21 after modeling, and serum samples were separated and stored at −80° C. for biochemical detection.
After 21 days of modeling (14 days of drug treatment), blood samples were taken and serum separation was performed to detect three renal functions (UA, CREA and UREA) (See Table 1 and FIGS. 2a, 2b and 2c). Compound 1 is Sevelamer carbonate and Compound 2 is a graft polytriallylamine with 50% molar percentage of the moiety to the tertiary amine in polytriallylamine.

Oc1ncnc2[nH]ncc12 [Allopurinol]
CREA, effect in words (10 mg/kg ig, day 21): significantly reduced
UA, effect in words (10 mg/kg ig, day 21): significantly reduced
UREA, effect in words (10 mg/kg ig, day 21): significantly reduced
CREA and UREA, conclusion in words (protective effect on the kidney) (conclusion over the dose groups): can decrease
